Results from patent US20260250721A1, “Biological Anisole Production” (Wageningen Universiteit, priority 2023, published 2026).
Numbering of substitutions follows the chain as printed. Names and notes keep the numbering of the source.

Tests used:
[1] = system: P. putida KT2440; assay: Toxicity analysis: growth of P. putida KT2440 at different phenol and anisole concentrations
Protocol: (§1) P. putida and E. coli cultures were incubated at 30° C. and 37° C. respectively. For cloning purposes, both strains were propagated in Lysogeny Broth (LB) medium containing 10 g/L NaCl, 10 g/L tryptone, and 5 g/L yeast extract. For the preparation of solid media, 1.5% (w/v) agar was added. […] All growth experiments were performed using M9 minimal medium (per Liter; 3.88 g K2HPO4, 1.63 g NaH2PO4, 2.0 g (NH4)2SO4, pH 7.0. The M9 media was supplemented with a trace elements solution (10 mg/L ethylenediaminetetraacetic acid (EDTA), 0.1 g/L MgCl2 6 H2O, 2 mg/L ZnSO4·7H2O, 1 mg/L CaCl2)·2H2O, 5 mg/L FeSO4·7 H2O, 0.2 mg/L Na2MoO4·2H2O, 0.2 mg/L CuSO4·5H2O, 0.4 mg/L CoCl2·6H2O, 1 mg/L MnCl2·2H2O). In these experiments, strains were precultured in 10 mL LB with corresponding antibiotics. Then, the cultures were washed twice in M9 media without a carbon source. Finally, the cultures were diluted to an OD600 of 0.1 to start the experiment. In all plate reader experiments, a glucose concentration of 10 mM was used. […] Plate reader experiments were carried out in 200 μL of M9 medium using an ELx808 plate reader (BioTek). Growth (OD600) was measured over time using continuous shaking and measurements were taken every three minutes. Flask experiments were performed in 250 mL Erlenmeyer flasks filled with 25 mL of M9 minimal medium containing 50 mM of glucose. […] The cultures were incubated in a rotary shaker at 200 rpm at 30° C.
The production of aromatic compounds often comes with unwanted toxicity. One way of circumventing this is the utilization of microbial hosts with high tolerance towards aromatic compounds (Li et al., 2020. Biotechnol Adv 41: 107548).
The presence of phenolic hydroxyl groups has been associated with the inhibition of microbial enzymes and the damage of the bacterial membrane (Miklasinska-Majdanik et al., 2018. Int J Environ Res Public Health 15: 2321).

[2] = Abiotic escape of anisole from M9 minimal media overnight; format: physicochemical; settings: 2 mM anisole in M9 minimal media, flasks
[3] = Distribution of anisole and phenol between water and organic solvent after 1 h; format: physicochemical; settings: 1 mM in water, equal volume of dodecane, ethyl acetate, isopropyl myristate or tributyrin
Protocol: A main bottleneck when producing anisole is its volatility. To overcome this problem an organic solvent can be used in biphasic fermentation to quantify volatile or insoluble products in water, allowing their recovery. To enable in situ anisole extraction, we tested four organic solvents: dodecane, ethyl acetate, isopropyl myristate, and tributyrin. […] Next, 0.9 ml of the stock solution was mixed with an equal volume of one of the selected solvents in an Eppendorf tube.
Therefore, dodecane was chosen as the solvent for anisole extraction.

[4] = Anisole capture at different dodecane ratios, 24 h flasks; format: physicochemical; settings: 30° C., 250 rpm
Protocol: An additional experiment was performed to determine the optimal ratio of the two phases. Ratios of 0%, 5%, 15%, 30%, 50%, and 100% dodecane were tested in a total volume of 25 ml. […] Next, dodecane was added to the flasks according to the predetermined ratios. Flasks were incubated for 24 h at 30° C. and 250 rpm to simulate P. putida KT2440 growth. After incubation, samples were collected separately from each phase and concentrations were measured using HPLC. […] After 24 hours, samples containing the organic phase from 5% and 15% dodecane flasks captured on average 19.42% and 39.57% of the initial concentration of anisole, respectively. […] Flasks containing 30% dodecane, extracted approximately 75% of the anisole which was further increased to nearly 95% flasks with a 50% ratio.

[5] = system: phenol; assay: Phenol consumption and anisole production by P. putida KT2440 expressing CVOMT1; format: cell-based, Pseudomonas putida; settings: 50 mM glucose, 1 mM phenol
Protocol: as §1

[6] = system: phenol; assay: Phenol consumption and anisole production, CVOMT1 vs POMT1 in P. putida KT2440 with 50% dodecane; format: cell-based, Pseudomonas putida; settings: for anisole produced, maximum / phenol consumed: 50 mM glucose, 1 mM phenol, 1 mM methionine, 50% dodecane; for phenol consumed: 24 hours
Protocol: Cell growth was determined by measuring the optical density at 600 nm (OD600) using an OD600 DiluPhotometer spectrophotometer (IMPLEN) or a Synergy plate reader (BioTek Instruments). Analysis of glucose in supernatants was performed using high-performance liquid chromatography (HPLC) (Thermo Fisher Scientific) equipped with an Aminex HPX-87H column. The mobile phase was 5 mM of H2SO4 at a flow rate of 0.6 mL/min, the column temperatures were held at 60° C. and the compounds were detected using a Shodex RI-101 detector (Shodex). […] The mobile phase consisted of Milli-Q water (A), 100 mM formic acid (B) and acetonitrile (C) with a flow rate of 1 mL/min at 30° C. Chromatographic separation of analytes was attained using the following gradient program: t=0-5 min: A-55%, B-10% and C-35% from t=5-10 min ramp to A-10%, B-10% and C-80% and held until 15 min. Then from t=15-16 min, the gradient was returned to A-55%, B-10% and C-35% and maintained isocratic for a total run time of 18 min. For quantification, calibration curves were prepared using pure standards (purity) purchased from Sigma-Aldrich.
Next, an aim was set to examine the anisole production rate of POMT1 compared to CVOMT1. […] An initial sample was taken and hereafter 50% dodecane was added. Cells were then incubated overnight at 30° C. and 250 rpm. Samples were taken at time zero only from the medium and then after 24 hours from both phases and analyzed at the HPLC.

[7] = system: phenol; assay: Growth-coupled methyltransferase selection in CM-Aux; format: cell-based, Pseudomonas putida
Text: This design relies on the conversion of methionine into cysteine through the intermediate homocysteine with the aid of a SAM-dependent methyltransferase. Exogenously added methionine is converted into SAM, which would subsequently be converted into S-adenosyl-l-homocysteine (SAH) by CVOMT1 (FIG. 8C). Then, SAH is converted into homocysteine and subsequently into cysteine by reverse trans-sulfuration restoring growth in the process.
Next, an aim was set to install the reverse trans-sulfuration module which will convert homocysteine to the amino acid cysteine. This is a two-step process, catalyzed by the enzymes cystathionine-β-synthase and cystathionine-γ-lyase. The C-module was created by cloning the cystathionine-β-synthase (Cys) from S. cerevisiae and the cystathionine-γ-lyase (PA) from Pseudomonas aeruginosa on a pSEVAb62 backbone. The CM-Aux strain was equipped with the C-module and growth of the strain in minimal media was assessed. In all cases, growth could only occur upon the expression of the C-module. This module converts homocysteine to […], and if active, produces cysteine, restoring growth (FIG. 8A). […]
Next, an aim was set to examine the anisole production rate of POMT1 compared to CVOMT1. […] Samples were taken at time zero only from the medium and then after 24 hours from both phases and analyzed at the HPLC.

Which “concentration up to which growth rates did not deviate” value ([1]; growth of P. putida KT2440) does the source give for `Oc1ccccc1` [phenol] here?
Its value is “up to 2 mM”.

What about the “concentration with detrimental effect on growth rate and final cell density” value ([1]; growth of P. putida KT2440) of the same molecule?
The value was at least 3000 µM.

What about the “phenol concentration the strain was able to withstand” value ([1]; growth of P. putida KT2440) of the same molecule?
The value was “up to 5 mM”.

Which results are given for `COc1ccccc1` [anisole]?
effect on growth [1]: did not show any detrimental effects on growth; anisole disappeared from media [2]: 89%; capture of anisole by organic solvents [3]: successfully captured; anisole in water phase ([4]; 0% dodecane): almost undetectable; anisole captured in organic phase, of initial concentration ([4]; 5% dodecane): 19.42%; anisole captured in organic phase, of initial concentration ([4]; 15% dodecane): 39.57%; anisole extracted ([4]; 30% dodecane): approximately 75%; anisole extracted ([4]; 50% dodecane): ~95%

B1: CVOMT1: chavicol O-methyltransferase (EC 2.1.1.146) from Ocimum basilicum, SEQ ID NO:1 (protein, listed as Ocimum basilicum)
chain: MALQNMDISLSTEQLLQAQAHVWNHMYAFANSMSLKCAIQLGIPDILHKHDHPMTLSQLLKAIPINKEKSQSFQRLMRALVNSNFFIEENSNNQEVCYWLTPASRLLLKGAPLTVAPLVQVVLDPTFTNPWHYMSEWFKHENHATQFEAANGCTFWEKLANKPSMGRFFDEAMSCDSRLVAHVLTKDYKHVIDGIRTLVDVGGGNGTMAKAIVEAVPTMKCTVLDLPHVVAGLESTDKLSYIGGDMFQSIPSADAILLKFIIHDWDDEEGLKILKRCKDAVGIGGKVIIIDVVVGVNHDVDEVLEDQLHFDMAMMSYFNAKERTMNEWEKLISAAGFTSYKLTPAFGVRSLIEAYP
What does the source list for B1?
anisole yield of the converted phenol ([5]; 1 mM methionine added): 15.5 % mol/mol; anisole detection ([5]; no methionine): no anisole was detected; phenol consumed ([5]; no methionine, 24 hours): 0.12 mM; anisole produced, maximum [6]: 0.06 mM; phenol consumed [6]: 0.23 mM; doubling time ([7]; CM-Aux with C- and A-module, phenol and methionine added (1 mM)): 1.8 h

B2: POMT1: evolved phenol O-methyltransferase, SEQ ID NO:1 with D264N alteration (SEQ ID NO:3) (protein)
chain: B1 chain with D264N
Which “increase in anisole concentration compared to wild-type enzyme” value [6] does the source give for B2 here?
Its value is 2.33 fold.

And the “anisole produced, maximum” value [6]?
Its value is 0.14 mM.

And the phenol consumed [6]?
The phenol consumed was 0.38 mM.

And the “phenol consumption more than CVOMT1” value ([6]; within 24 hours)?
The value was 65%.

What about the “phenol concentration at which maximum growth rate is reached” value ([7]; CM-Aux, 1 mM methionine, different phenol concentrations) of the same molecule?
Its value is 0.2 mM.
